# Results: ChEMBL document CHEMBL4382269, “Discovery of Potent, Efficient, and Selective Inhibitors of Phosphoinositide 3-Kinase δ through a Deconstruction and Regrowth Approach” (J Med Chem, 2018)
# Legend:
# Homo sapiens [1] = species: Homo sapiens; assay: Selectivity ratio of IC50 for IKK2 (unknown origin) to IC50 for PI3Kdelta (unknown origin)
# Homo sapiens [2] = species: Homo sapiens; assay: Selectivity ratio of IC50 for mTOR (unknown origin) to IC50 for PI3Kdelta (unknown origin)
# Homo sapiens [3] = species: Homo sapiens; assay: Selectivity ratio of IC50 for Aurora B (unknown origin) to IC50 for PI3Kdelta (unknown origin)
# [4] = target: Phosphatidylinositol 4,5-bisphosphate 3-kinase catalytic subunit alpha isoform (Homo sapiens, UniProt P42336); assay: Inhibition of PI3Kalpha (unknown origin) using PIP2 as substrate preincubated for 15 mins followed by substrate addition measured after 60 mins by HTRF method
# Homo sapiens [5] = species: Homo sapiens; assay: Selectivity ratio of IC50 for EGFR (unknown origin) to IC50 for PI3Kdelta (unknown origin)
# Homo sapiens [6] = species: Homo sapiens; assay: Selectivity ratio of IC50 for ASK1 (unknown origin) to IC50 for PI3Kdelta (unknown origin)
# Homo sapiens [7] = species: Homo sapiens; assay: Selectivity ratio of IC50 for DNA-PK (unknown origin) to IC50 for PI3Kdelta (unknown origin)
# PBMC = assay: Inhibition of cytostim stimulated IFNgamma production in human PBMC […] by electrochemiluminescence assay; format: functional, cell-based
# Homo sapiens [8] = species: Homo sapiens; assay: Selectivity ratio of IC50 for IKK1 (unknown origin) to IC50 for PI3Kdelta (unknown origin)
# Homo sapiens [9] = species: Homo sapiens; assay: Selectivity ratio of IC50 for ITK (unknown origin) to IC50 for PI3Kdelta (unknown origin)
# Homo sapiens [10] = species: Homo sapiens; assay: Selectivity ratio of IC50 for PI3Kbeta (unknown origin) to IC50 for PI3Kdelta (unknown origin)
# Homo sapiens [11] = species: Homo sapiens; assay: Selectivity ratio of IC50 for ROCK (unknown origin) to IC50 for PI3Kdelta (unknown origin)
# Homo sapiens [12] = species: Homo sapiens; assay: Selectivity ratio of IC50 for DAG beta (unknown origin) to IC50 for PI3Kdelta (unknown origin)
# Homo sapiens [13] = species: Homo sapiens; assay: Selectivity ratio of IC50 for SPHK1 (unknown origin) to IC50 for PI3Kdelta (unknown origin)
# Homo sapiens [14] = species: Homo sapiens; assay: Selectivity ratio of IC50 for SPHK2 (unknown origin) to IC50 for PI3Kdelta (unknown origin)
# Homo sapiens [15] = species: Homo sapiens; assay: Selectivity ratio of IC50 for PI4KA (unknown origin) to IC50 for PI3Kdelta (unknown origin)
# Homo sapiens [16] = species: Homo sapiens; assay: Selectivity ratio of IC50 for PI4KB (unknown origin) to IC50 for PI3Kdelta (unknown origin)
# Homo sapiens [17] = species: Homo sapiens; assay: Selectivity ratio of IC50 for p38alpha (unknown origin) to IC50 for PI3Kdelta (unknown origin)
# Homo sapiens [18] = species: Homo sapiens; assay: Selectivity ratio of IC50 for DAG gamma (unknown origin) to IC50 for PI3Kdelta (unknown origin)
# Homo sapiens [19] = species: Homo sapiens; assay: Selectivity ratio of IC50 for PI3Kgamma (unknown origin) to IC50 for PI3Kdelta (unknown origin)
# Homo sapiens [20] = species: Homo sapiens; assay: Selectivity ratio of IC50 for PIP4K2A (unknown origin) to IC50 for PI3Kdelta (unknown origin)
# Homo sapiens [21] = species: Homo sapiens; assay: Selectivity ratio of IC50 for LRRK2 (unknown origin) to IC50 for PI3Kdelta (unknown origin)
# [22] = target: Phosphatidylinositol 4,5-bisphosphate 3-kinase catalytic subunit gamma isoform (Homo sapiens, UniProt P48736); assay: Inhibition of PI3Kgamma (unknown origin) using PIP2 as substrate preincubated for 15 mins followed by substrate addition measured after 60 mins by HTRF method
# Homo sapiens [23] = species: Homo sapiens; assay: Selectivity ratio of IC50 for JAK3 (unknown origin) to IC50 for PI3Kdelta (unknown origin)
# serum albumin = serum albumin (Homo sapiens, UniProt P02768); assay: Binding affinity to human serum albumin by HPLC analysis; format: ADME; details: read-out: PB (converted)
# Homo sapiens [24] = species: Homo sapiens; assay: Selectivity ratio of IC50 for SYK (unknown origin) to IC50 for PI3Kdelta (unknown origin)
# [25] = target: T1, Phosphatidylinositol 4,5-bisphosphate 3-kinase catalytic subunit delta isoform (Homo sapiens, UniProt O00329); assay: Inhibition of PI3Kdelta (unknown origin) using PIP2 as substrate preincubated for 15 mins followed by substrate addition measured after 60 mins by HTRF method
# T1 sequence (O00329 whole entry): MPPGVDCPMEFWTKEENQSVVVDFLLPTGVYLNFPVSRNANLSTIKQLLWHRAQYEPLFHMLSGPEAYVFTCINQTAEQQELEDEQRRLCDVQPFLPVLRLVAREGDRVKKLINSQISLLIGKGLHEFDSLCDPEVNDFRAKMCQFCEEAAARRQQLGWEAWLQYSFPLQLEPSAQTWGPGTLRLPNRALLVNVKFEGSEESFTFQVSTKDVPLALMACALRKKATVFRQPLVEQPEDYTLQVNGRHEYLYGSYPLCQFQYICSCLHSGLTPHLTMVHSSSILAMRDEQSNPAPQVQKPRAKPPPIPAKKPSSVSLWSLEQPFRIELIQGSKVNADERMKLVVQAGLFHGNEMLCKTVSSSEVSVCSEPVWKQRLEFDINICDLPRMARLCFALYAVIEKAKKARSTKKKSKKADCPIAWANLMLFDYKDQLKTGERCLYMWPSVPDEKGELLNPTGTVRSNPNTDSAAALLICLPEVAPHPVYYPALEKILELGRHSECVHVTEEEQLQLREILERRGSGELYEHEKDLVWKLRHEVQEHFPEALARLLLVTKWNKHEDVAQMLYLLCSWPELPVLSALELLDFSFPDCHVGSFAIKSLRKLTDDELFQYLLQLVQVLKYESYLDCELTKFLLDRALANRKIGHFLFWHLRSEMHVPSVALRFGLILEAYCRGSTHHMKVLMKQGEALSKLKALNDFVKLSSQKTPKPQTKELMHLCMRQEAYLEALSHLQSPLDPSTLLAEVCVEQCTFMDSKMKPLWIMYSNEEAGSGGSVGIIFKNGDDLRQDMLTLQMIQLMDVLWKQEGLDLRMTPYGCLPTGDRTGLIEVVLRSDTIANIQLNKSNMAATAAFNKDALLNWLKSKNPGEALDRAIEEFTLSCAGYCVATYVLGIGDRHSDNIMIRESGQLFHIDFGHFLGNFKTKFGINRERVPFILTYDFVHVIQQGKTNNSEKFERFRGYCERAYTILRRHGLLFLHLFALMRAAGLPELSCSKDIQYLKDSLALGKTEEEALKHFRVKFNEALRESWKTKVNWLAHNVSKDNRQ
# [26] = Clearance in rat microsomes at 0.5 uM in presence of NADPH measured up to 30 mins by LC-MS/MS analysis; format: ADME, Microsome; details: 0.5 h
# [27] = target: Phosphatidylinositol 4,5-bisphosphate 3-kinase catalytic subunit beta isoform (Homo sapiens, UniProt P42338); assay: Inhibition of PI3Kbeta (unknown origin) using PIP2 as substrate preincubated for 15 mins followed by substrate addition measured after 60 mins by HTRF method
# Homo sapiens [28] = species: Homo sapiens; assay: Selectivity ratio of IC50 for CHKA (unknown origin) to IC50 for PI3Kdelta (unknown origin)
# Homo sapiens [29] = species: Homo sapiens; assay: Selectivity ratio of IC50 for DAG zeta (unknown origin) to IC50 for PI3Kdelta (unknown origin)
# Homo sapiens [30] = species: Homo sapiens; assay: Selectivity ratio of IC50 for JNK1 (unknown origin) to IC50 for PI3Kdelta (unknown origin)
# Homo sapiens [31] = species: Homo sapiens; assay: Selectivity ratio of IC50 for BTK (unknown origin) to IC50 for PI3Kdelta (unknown origin)
# Homo sapiens [32] = species: Homo sapiens; assay: Selectivity ratio of IC50 for LCK (unknown origin) to IC50 for PI3Kdelta (unknown origin)
# [33] = target: Voltage-gated inwardly rectifying potassium channel KCNH2 (Homo sapiens, UniProt Q12809); assay: Inhibition of human ERG expressed in CHO cells after 75 mins by fluorescence polarization assay
# Homo sapiens [34] = species: Homo sapiens; assay: Selectivity ratio of IC50 for PIK3C3/PIK3R4 (unknown origin) to IC50 for PI3Kdelta (unknown origin)
# Homo sapiens [35] = species: Homo sapiens; assay: Selectivity ratio of IC50 for JAK2 (unknown origin) to IC50 for PI3Kdelta (unknown origin)
# Homo sapiens [36] = species: Homo sapiens; assay: Selectivity ratio of IC50 for PI3Kalpha (unknown origin) to IC50 for PI3Kdelta (unknown origin)
# Homo sapiens [37] = species: Homo sapiens; assay: Selectivity ratio of IC50 for PIK3C2B (unknown origin) to IC50 for PI3Kdelta (unknown origin)
# [38] = Clearance in human microsomes at 0.5 uM in presence of NADPH measured up to 30 mins by LC-MS/MS analysis; format: ADME, Microsome; details: 0.5 h
# [39] = Kinetic solubility of the compound in phosphate buffer saline at pH 7.4 after 1 hr by CLND method; format: physicochemical; details: phosphate buffered saline, read-out: Kinetic_solubility
# Homo sapiens [40] = species: Homo sapiens; assay: Selectivity ratio of IC50 for CHKB (unknown origin) to IC50 for PI3Kdelta (unknown origin)
# Sequence of Phosphatidylinositol 4,5-bisphosphate 3-kinase catalytic subunit alpha isoform (P42336 whole entry, canonical isoform): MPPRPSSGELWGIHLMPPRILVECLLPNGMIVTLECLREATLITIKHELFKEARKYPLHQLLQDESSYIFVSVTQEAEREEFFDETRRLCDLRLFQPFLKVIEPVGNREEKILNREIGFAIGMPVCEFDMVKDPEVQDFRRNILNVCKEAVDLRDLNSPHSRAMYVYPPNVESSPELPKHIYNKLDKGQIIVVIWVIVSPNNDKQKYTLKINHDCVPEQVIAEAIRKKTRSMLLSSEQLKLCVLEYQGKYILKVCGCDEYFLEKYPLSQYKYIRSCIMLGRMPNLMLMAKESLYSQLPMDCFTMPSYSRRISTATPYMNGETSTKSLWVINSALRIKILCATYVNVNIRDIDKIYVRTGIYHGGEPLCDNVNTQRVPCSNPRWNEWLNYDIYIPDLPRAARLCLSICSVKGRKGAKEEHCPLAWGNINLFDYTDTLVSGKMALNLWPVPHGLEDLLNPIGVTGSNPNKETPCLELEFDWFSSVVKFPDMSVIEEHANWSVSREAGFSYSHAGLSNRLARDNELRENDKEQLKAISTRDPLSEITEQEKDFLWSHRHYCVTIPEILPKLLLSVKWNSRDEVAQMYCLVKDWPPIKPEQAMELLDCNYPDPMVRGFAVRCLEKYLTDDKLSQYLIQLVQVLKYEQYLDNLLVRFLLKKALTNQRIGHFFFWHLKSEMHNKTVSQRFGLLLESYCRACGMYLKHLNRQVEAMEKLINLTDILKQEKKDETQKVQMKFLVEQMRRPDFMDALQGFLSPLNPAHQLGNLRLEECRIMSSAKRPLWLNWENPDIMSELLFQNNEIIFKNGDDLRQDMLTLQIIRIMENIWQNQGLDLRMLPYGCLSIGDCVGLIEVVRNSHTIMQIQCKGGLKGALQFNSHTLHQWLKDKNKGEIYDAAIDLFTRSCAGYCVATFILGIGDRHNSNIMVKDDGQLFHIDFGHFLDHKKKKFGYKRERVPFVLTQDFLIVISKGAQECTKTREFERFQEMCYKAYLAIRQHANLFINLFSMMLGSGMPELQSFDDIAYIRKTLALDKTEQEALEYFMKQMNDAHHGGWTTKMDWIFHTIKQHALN
# Sequence of Voltage-gated inwardly rectifying potassium channel KCNH2 (Q12809 whole entry): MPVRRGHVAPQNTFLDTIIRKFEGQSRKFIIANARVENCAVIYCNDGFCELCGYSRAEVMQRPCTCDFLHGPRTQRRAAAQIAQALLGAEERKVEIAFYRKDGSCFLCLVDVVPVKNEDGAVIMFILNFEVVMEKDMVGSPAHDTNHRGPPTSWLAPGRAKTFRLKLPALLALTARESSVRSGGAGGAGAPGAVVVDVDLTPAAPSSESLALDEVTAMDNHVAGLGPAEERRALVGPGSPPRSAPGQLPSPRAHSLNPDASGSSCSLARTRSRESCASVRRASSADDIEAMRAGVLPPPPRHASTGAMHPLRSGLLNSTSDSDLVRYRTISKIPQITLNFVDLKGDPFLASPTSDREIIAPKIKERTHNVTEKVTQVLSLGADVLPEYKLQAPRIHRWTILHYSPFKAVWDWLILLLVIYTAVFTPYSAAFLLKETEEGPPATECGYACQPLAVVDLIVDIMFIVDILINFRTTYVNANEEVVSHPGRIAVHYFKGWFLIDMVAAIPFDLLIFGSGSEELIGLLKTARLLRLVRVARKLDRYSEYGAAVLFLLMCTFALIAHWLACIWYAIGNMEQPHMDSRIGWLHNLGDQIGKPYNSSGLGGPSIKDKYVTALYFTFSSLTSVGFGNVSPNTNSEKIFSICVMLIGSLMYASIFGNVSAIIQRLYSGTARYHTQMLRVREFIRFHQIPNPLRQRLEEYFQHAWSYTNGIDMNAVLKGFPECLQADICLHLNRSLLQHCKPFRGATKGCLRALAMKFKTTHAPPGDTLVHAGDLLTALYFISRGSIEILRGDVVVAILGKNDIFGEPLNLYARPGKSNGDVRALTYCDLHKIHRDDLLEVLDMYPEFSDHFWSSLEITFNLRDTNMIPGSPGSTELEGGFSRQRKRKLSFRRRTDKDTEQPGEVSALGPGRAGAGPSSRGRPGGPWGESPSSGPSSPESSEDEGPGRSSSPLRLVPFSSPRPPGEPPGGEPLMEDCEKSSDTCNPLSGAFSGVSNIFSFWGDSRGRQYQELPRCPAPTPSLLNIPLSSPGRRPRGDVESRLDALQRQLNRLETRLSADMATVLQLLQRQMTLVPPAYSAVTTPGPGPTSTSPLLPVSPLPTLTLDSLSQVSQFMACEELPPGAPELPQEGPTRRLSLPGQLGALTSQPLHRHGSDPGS
# Sequence of Phosphatidylinositol 4,5-bisphosphate 3-kinase catalytic subunit beta isoform (P42338 whole entry, canonical isoform): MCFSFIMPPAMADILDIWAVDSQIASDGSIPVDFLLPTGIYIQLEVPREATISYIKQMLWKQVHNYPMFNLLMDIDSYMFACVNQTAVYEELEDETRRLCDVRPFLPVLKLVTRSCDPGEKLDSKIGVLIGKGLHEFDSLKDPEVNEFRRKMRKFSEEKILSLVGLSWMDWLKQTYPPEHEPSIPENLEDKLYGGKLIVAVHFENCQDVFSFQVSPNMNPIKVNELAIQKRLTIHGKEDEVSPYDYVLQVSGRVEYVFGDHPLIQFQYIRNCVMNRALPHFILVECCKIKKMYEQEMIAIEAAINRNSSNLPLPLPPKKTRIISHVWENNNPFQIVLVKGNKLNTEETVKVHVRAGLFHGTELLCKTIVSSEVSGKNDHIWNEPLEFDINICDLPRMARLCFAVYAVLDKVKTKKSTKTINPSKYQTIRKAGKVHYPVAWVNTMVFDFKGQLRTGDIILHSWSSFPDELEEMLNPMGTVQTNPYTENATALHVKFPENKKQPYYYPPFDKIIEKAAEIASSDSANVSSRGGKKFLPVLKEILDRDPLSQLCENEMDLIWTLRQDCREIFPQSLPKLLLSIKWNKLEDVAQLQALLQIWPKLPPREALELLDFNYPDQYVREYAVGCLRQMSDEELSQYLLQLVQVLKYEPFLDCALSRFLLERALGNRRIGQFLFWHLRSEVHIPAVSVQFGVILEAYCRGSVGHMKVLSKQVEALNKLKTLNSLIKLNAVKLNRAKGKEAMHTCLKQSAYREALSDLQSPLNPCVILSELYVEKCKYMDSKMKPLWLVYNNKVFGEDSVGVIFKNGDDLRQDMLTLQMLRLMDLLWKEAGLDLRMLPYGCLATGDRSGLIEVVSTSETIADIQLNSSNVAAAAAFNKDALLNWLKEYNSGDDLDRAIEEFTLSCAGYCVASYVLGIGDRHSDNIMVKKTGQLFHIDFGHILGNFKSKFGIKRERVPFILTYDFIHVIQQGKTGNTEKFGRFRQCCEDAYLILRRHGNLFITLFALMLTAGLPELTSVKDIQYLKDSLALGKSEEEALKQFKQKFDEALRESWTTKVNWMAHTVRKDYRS
# Sequence of serum albumin (P02768 whole entry): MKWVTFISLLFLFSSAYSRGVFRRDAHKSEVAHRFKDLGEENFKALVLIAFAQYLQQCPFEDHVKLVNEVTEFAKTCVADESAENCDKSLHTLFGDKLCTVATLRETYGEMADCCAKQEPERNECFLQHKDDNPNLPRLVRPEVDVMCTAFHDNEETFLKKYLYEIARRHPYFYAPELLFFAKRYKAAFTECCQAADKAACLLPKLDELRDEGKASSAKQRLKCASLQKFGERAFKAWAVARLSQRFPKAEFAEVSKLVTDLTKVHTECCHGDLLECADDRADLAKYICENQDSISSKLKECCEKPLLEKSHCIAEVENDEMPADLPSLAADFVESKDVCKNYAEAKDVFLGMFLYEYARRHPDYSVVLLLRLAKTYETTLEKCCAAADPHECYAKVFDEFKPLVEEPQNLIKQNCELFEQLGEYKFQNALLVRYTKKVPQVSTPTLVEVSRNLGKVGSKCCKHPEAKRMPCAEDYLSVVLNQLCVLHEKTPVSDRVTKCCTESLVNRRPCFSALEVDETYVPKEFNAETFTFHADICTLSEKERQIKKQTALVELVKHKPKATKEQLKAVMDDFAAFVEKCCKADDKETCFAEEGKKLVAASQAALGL
# Sequence of Phosphatidylinositol 4,5-bisphosphate 3-kinase catalytic subunit gamma isoform (P48736 whole entry, canonical isoform): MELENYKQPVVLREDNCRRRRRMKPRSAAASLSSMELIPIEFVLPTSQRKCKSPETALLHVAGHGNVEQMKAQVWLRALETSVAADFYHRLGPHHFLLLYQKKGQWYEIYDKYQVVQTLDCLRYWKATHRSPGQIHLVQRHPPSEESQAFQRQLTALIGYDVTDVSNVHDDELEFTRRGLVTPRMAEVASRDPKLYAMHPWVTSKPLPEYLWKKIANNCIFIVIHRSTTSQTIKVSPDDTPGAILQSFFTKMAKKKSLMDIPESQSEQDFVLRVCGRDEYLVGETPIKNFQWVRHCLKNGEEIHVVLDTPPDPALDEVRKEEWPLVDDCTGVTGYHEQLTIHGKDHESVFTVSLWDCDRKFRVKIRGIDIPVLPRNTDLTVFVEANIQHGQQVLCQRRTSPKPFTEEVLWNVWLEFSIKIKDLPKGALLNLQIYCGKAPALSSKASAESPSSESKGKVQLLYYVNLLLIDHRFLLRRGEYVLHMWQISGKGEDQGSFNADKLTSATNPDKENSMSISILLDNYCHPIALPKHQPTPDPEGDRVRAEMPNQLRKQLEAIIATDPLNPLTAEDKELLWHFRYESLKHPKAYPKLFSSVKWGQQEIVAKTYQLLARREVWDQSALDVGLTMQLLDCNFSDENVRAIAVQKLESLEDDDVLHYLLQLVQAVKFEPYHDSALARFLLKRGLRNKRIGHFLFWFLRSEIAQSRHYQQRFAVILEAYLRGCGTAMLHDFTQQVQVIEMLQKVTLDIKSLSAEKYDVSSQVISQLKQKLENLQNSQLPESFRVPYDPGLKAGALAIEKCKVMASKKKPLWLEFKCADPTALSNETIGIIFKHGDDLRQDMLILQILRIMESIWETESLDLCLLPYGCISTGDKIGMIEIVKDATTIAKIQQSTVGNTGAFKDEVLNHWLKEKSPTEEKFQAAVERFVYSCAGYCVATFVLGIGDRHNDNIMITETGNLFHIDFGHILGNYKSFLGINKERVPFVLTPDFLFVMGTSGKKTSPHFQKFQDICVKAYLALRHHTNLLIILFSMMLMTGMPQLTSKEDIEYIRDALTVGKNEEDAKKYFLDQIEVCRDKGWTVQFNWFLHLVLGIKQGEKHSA
smiles,measurement,setting,value
COc1ncc(C2=CCOCC2)cc1NS(=O)(=O)c1cn(Cc2ccccc2)c(C)n1,Ratio IC50,Homo sapiens [1],> 100
same,Ratio IC50,Homo sapiens [2],> 100
same,Ratio IC50,Homo sapiens [3],> 100
same,IC50,[4],631 nM
same,Ratio IC50,Homo sapiens [5],> 100
same,Ratio IC50,Homo sapiens [6],> 100
same,Ratio IC50,Homo sapiens [7],> 100
same,IC50,PBMC,50.1 nM
same,Ratio IC50,Homo sapiens [8],> 100
same,Ratio IC50,Homo sapiens [9],> 100
same,Ratio IC50,Homo sapiens [10],> 100
same,Ratio IC50,Homo sapiens [11],> 100
same,Ratio IC50,Homo sapiens [12],> 100
same,Ratio IC50,Homo sapiens [13],> 100
same,Ratio IC50,Homo sapiens [14],> 100
same,Ratio IC50,Homo sapiens [15],> 100
same,Ratio IC50,Homo sapiens [16],> 100
same,Ratio IC50,Homo sapiens [17],> 100
same,Ratio IC50,Homo sapiens [18],> 100
same,Ratio IC50,Homo sapiens [19],> 100
same,Ratio IC50,Homo sapiens [20],> 100
same,Ratio IC50,Homo sapiens [21],> 100
same,IC50,[22],1000 nM
same,Ratio IC50,Homo sapiens [23],> 100
same,fraction unbound,serum albumin,0.101
same,Ratio IC50,Homo sapiens [24],> 100
same,IC50,[25],6.31 nM
same,clearance,[26],17.4 mL/min/g
same,IC50,[27],1000 nM
same,Ratio IC50,Homo sapiens [28],> 100
same,Ratio IC50,Homo sapiens [29],> 100
same,Ratio IC50,Homo sapiens [30],> 100
same,Ratio IC50,Homo sapiens [31],> 100
same,Ratio IC50,Homo sapiens [32],> 100
same,IC50,[33],> 50100 nM
same,Ratio IC50,Homo sapiens [34],> 100
same,Ratio IC50,Homo sapiens [35],> 100
same,Ratio IC50,Homo sapiens [36],> 100
same,Ratio IC50,Homo sapiens [37],> 100
same,clearance,[38],7.9 mL/min/g
same,solubility kinetic at 1 h,[39],12 µg/mL
same,Ratio IC50,Homo sapiens [40],> 100
